This is an account of results in US10100057B2, “Imidazopyrimidine and imidazotriazine derivative, and pharmaceutical composition comprising the same” (SK BIOPHARMACEUTICALS CO., LTD., priority 2016, dated 2018).

The structures appear in SMILES notation.

Broadly, the EC50 is the concentration needed to bring the measured effect to its halfway point.

Sequence of human mGluR5 receptor (P41594 21-1212): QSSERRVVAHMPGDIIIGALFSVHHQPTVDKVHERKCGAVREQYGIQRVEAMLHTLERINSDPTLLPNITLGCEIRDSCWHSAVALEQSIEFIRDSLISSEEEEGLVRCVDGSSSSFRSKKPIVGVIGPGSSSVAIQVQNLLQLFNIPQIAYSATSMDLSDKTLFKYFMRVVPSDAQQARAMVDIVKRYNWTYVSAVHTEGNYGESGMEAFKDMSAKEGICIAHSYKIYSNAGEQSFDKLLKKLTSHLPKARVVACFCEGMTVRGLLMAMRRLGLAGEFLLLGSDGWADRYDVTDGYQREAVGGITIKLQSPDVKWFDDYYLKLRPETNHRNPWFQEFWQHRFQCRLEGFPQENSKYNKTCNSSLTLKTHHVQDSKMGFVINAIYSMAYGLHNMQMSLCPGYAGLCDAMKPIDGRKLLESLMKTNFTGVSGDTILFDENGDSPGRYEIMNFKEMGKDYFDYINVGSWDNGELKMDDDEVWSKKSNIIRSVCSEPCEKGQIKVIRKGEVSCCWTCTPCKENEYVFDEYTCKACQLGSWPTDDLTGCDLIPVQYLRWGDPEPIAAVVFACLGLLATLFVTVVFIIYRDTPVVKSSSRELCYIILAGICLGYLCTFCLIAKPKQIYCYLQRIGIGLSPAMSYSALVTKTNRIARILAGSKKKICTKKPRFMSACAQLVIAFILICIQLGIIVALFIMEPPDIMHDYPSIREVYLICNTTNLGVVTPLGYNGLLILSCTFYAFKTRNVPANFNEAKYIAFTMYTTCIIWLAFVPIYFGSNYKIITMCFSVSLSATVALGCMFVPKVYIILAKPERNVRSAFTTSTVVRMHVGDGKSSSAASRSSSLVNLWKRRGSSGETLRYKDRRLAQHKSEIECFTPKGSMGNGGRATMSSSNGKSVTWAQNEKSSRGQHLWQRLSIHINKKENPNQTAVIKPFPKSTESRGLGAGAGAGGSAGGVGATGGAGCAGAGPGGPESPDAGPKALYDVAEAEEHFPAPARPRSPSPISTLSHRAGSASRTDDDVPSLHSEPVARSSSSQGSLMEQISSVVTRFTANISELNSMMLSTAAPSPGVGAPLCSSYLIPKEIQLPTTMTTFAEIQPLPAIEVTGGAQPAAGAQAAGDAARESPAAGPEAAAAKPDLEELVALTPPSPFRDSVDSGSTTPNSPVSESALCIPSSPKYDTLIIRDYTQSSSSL

This test concerns the target human mGluR5 receptor (Homo sapiens (Human), UniProt P41594). Description: Calcium influx assay based on fluorescence (mGluR5 positive allosteric modulator activity). The following applies: human mGluR5 receptor-overexpressed HEK293 cell line; L-glutamate EC20; Fluo-4, FLIPR; read-out: Human mGluR5 PAM EC50. As for the experimental part:
Efficacy as a positive allosteric modulator (PAM) of mGluR5 of the compounds of the Examples was tested as follows:
Calcium Influx Assay Based on Fluorescence
Ca^2+ (calcium) influx assay is an experiment for measuring the activity of a positive allosteric modulator of mGluR5 receptor in which human mGluR5 receptor-overexpressed HEK293 cell line is used. The day before the experiment, cells were prepared in a cell culture medium (DMEM, 5% FBS) with the density of 80,000/well, and 100 μl of cells were dispensed into each well of a poly-D-lysine-coated 96-well plate. Cells were incubated in a 5% CO2, 37° C. incubator. The next day, the cell culture medium was removed from the plate, and 100 μl of 1× Fluo-4 calcium indicator diluted with a buffer (1× Hank's balanced salt solution, 20 mM HEPES, 2.5 mM probenecid) were added to each well and incubated at 37° C. for 1 hour. The compound stock solutions were prepared in 100% DMSO, and the compounds were serially diluted with a 1/4 dilution to 6 or 7 concentrations (final concentration was 10 μM to 10 nM). The diluted compound solutions were added to the plate with 0.1 to 0.2% of final DMSO concentration. 1 hour after the addition of Fluo-4 calcium indicator, L-glutamate (EC20 concentration) and the test compound solutions were added to the plate, and Ca^2+ reaction was then measured by FLIPR at room temperature. The activity of the compounds was standardized on the basis of the results of maximum value-minimum value of fluorescent reaction, and the activity value was calculated on the basis that no activity on glutamate EC20 is 0% and the reaction to glutamate maximum value is 100%.
As to `Cc1cc(-c2cnc3nc(COc4ccc(F)cc4)cn3c2)cnc1F` [Example 91, 6-(6-fluoro-5-methyl-3-pyridyl)-2-[(4-fluorophenoxy)methyl]imidazo[1,2-a]pyrimidine], the EC50 was no more than 100 nM. With `FCc1cc(F)ccc1-c1cnc2nc(COc3ccccn3)cn2c1` [Example 198, 6-[4-fluoro-2-(fluoromethyl)phenyl]-2-(2-pyridyloxymethyl)imidazo[1,2-a]pyrimidine] the figure was no more than 100 nM. On to `Fc1ccc(-c2cnc3nc(COc4ccccn4)cn3c2)nc1` [Example 132, 6-(5-fluoro-2-pyridyl)-2-(2-pyridyloxymethyl)imidazo[1,2-a]pyrimidine], for which the EC50 was no more than 100 nM. The result for `Fc1ccc(-c2cnc3nc(COc4ccccc4)cn3c2)c(F)c1` [Example 3, 6-(2,4-difluorophenyl)-2-phenoxymethylimidazo[1,2-a]pyrimidine] reads no more than 100 nM; that for `Cc1cc(F)ccc1-c1cnc2nc(COc3ccccc3)cn2c1` [Example 6, 6-(4-fluoro-2-methylphenyl)-2-phenoxymethylimidazo[1,2-a]pyrimidine], no more than 100 nM; that for `Fc1ccc(OCc2cn3cc(-c4ccc(F)cc4Cl)cnc3n2)cc1` [Example 67, 6-(2-chloro-4-fluoro-phenyl)-2-[(4-fluorophenoxy)methyl]imidazo[1,2-a]pyrimidine], no more than 100 nM. Take `Cc1ccccc1-c1cnc2nc(COc3ccnc(F)c3)cn2c1` [Example 168, 6-(2-methylphenyl)-2-(2-fluoropyridin-4-yloxymethyl)imidazo[1,2-a]pyrimidine]: the EC50 was no more than 100 nM.

With `Cc1cc(F)ccc1-c1cnc2nc(COc3cc(F)ccn3)cn2c1` [Example 116, 6-(4-fluoro-2-methyl-phenyl)-2-[(4-fluoro-2-pyridyl)oxymethyl)imidazo[1,2-a]pyrimidine], the EC50 was no more than 100 nM.

Turning to `Fc1cccc(OCc2cn3cc(-c4ccc(C(F)(F)F)nc4)cnc3n2)c1` [Example 80, 2-[(3-fluorophenoxy)methyl]-6-[6-(trifluoromethyl)-3-pyridyl)imidazo[1,2-a]pyrimidine], the EC50 was no more than 100 nM. The result for `Cc1cc(F)ccc1-c1cnc2nc(COc3ccnc(F)c3)cn2c1` [Example 162, 6-(4-fluoro-2-methylphenyl)-2-(2-fluoropyridin-4-yloxymethyl)imidazo[1,2-a]pyrimidine] reads no more than 100 nM; that for `Cc1cc(F)ccc1-c1cnc2nc(COc3ccccn3)cn2n1` [Example 188, 2-(4-fluoro-2-methyl-phenyl)-6-(2-pyridyloxymethyl)imidazo[1,2-b][1,2,4]triazine], no more than 100 nM; that for `OCc1cc(F)ccc1-c1cnc2nc(COc3ccccc3)cn2c1` [Example 25, 6-(4-fluoro-2-hydroxymethylphenyl)-2-phenoxymethylimidazo[1,2-a]pyrimidine], no more than 100 nM.

As for `Cc1ccccc1-c1cnc2nc(COc3ccccc3)cn2c1` [Example 5, 6-(2-methylphenyl)-2-phenoxymethylimidazo[1,2-a]pyrimidine], the EC50 is no more than 100 nM.
